These results are taken from patent US4766133A, “(Bezimidazol-2-yl)-pyridinium compounds” (priority 1985, dated 1988).

Series [1] relates to indomethacin-induced lesions of the stomach. Description: anti-ulcer activity (indomethacin-induced lesions of the stomach). The class given is in vivo. The conditions noted are these: Rattus norvegicus, po, read-out: Anti-ulcer, ED50. The procedure: The experimental procedure described hereinafter was used to determine the anti-ulcer activity:
Groups each comprising 8 male rats with a body weight of 130-150 g are used for each dosage of a test substance. Before the beginning of the experiment the animals receive no food for 24 hours, but receive water ad libitum. Various dosages of the substances to be tested (suspended in 0.5% tragacanth) or the vehicle alone (controls) are administered twice perorally, namely 1 hour before and 2 hours after the peroral administration of 20 mg/kg of indomethacin. […] The animals are killed 6 hours after the first administration of the substanoe under investigation (or of the vehicle alone). The rats which remain protected from the occurrence of macroscopically visible lesions to the mucous membrane of the stomach are counted.

Series [2] concerns gastric acid secretion stimulated by 4-methylhistamine. Description: gastric acid secretion-inhibiting activity (Heidenhain type pouch, 4-methylhistamine stimulated). The class given is in vivo, beagle hounds (dog). The conditions noted are these: Canis lupus familiaris, read-out: Gastric acid secretion-inhibition, ED50. The procedure:
The experimental procedure described hereinafter was used to determine the gastric acid secretion-inhibiting activity:
In the pouch there is fitted a steel cannula which is conducted externally through the abdominal wall. Before each experiment the animals receive no food for 18 hours, but receive water ad libitum. They are conscious and standing during the experiment and their gastric acid secretion is stimulated by the intravenous infusion of 4-methylhistamine, a selective agonist of the histamine H2 -receptors. The gastric acid production is determined in 15 minute fractions of the stomach pouch juioe. As soon as the gastric acid production has a constant value, the substances to be tested are administered orally as a dry powder filled into gelatine capsules.

Series [3] is described as follows: acute toxicity (single oral administration to mice). Conditions: mouse, in vivo, read-out: Toxicity, LD 50. From the text: In the following Table there are given for a series of representative compounds of formula I the results of the testing with respect to their anti-ulcer activity and to their gastric secretion-inhibiting activity. Moreover, this Table contains data concerning the acute toxicity (LD50 in the case of single oral administration to mice).

[4] abbreviates: male rats, p.o. twice, 1 h before and 2 h after 20 mg/kg indomethacin p.o., 50% of animals protected from lesions.
Setting [5] is: conscious beagle hounds, Heidenhain type pouch, 4-methylhistamine i.v. infusion, oral dry powder in gelatine capsules, 50% inhibition.

Where two headings read alike, the source gives them in different places.

The term ED50 denotes the dose at which the effect has come halfway, by size or by number of responders. For `COc1cc[n+](-c2nc3cc4c(cc3[nH]2)C(C)(C)C(=O)C4(C)C)c(CSSCCC(N)C(=O)O)c1C.[Cl-]` (racemic) [P, 2-[[[(RS)-3-Amino-3-carboxypropyl]dithio]methyl]-4-methoxy-3-methyl-1-(1,5,6,7-tetrahydro-5,5,7,7-tetramethyl-6-oxoindeno[5,6-d]imidazol-2-yl)pyridinium chloride], the figures for the ED50 in series [1] (setting [4]) and in series [2] (setting [5]) were 1.9 mg/kg and 4.1 mg/kg, respectively. The LD50 in series [3] lay within 312 to 625 mg/kg.

As for `CCCSSCc1c(C)c(OC)cc[n+]1-c1nc2ccc(C(F)(F)F)cc2[nH]1.[Cl-]` [A, 2-[(propyldithio)methyl]-4-methoxy-3-methyl-1-[5-(trifluoromethyl)-2-benzimidazolyl]pyridinium chloride], the ED50 came to 1.2 mg/kg in series [1] (setting [4]) and 1.5 mg/kg in series [2] (setting [5]). In addition, in series [3], the LD50 is more than 5000 mg/kg.

On to `COc1cc[n+](-c2nc3ccc(C(F)(F)F)cc3[nH]2)c(CSSC[C@H](N)C(=O)O)c1C.[Cl-]` [B, 2-[[[(R)-2-Amino-2-carboxyethyl]dithio]methyl]-4-methoxy-3-methyl-1-[5-(trifluoromethyl)-2-benzimidazolyl]pyridinium chloride], for which the ED50 in series [1] (setting [4]) is 2.5 mg/kg; in series [2] (setting [5]) it was 2.8 mg/kg. Also, the LD50 in series [3] was in the range of 1250 to 2500 mg/kg.

As to `COc1cc[n+](-c2nc3cc(C(F)(F)F)ccc3[nH]2)c(CSSC[C@H](NC(=O)CC[C@H](N)C(=O)O)C(=O)NCC(=O)O)c1C` [C, 2-[[[(R)-2-[(S)-4-Amino-4-carboxybutyramido]-2-[(carboxymethyl)carbamoyl]ethyl]dithio]methyl]-4-methoxy-3-methyl-1-[(5-trifluoromethyl)-2-benzimidazolyl]pyridinium chloride], the ED50 in series [1] (setting [4]) and in series [2] (setting [5]) was 3 mg/kg in each case. Further, the LD50 in series [3] is 1250 to 2500 mg/kg.

As to `CCCCCCSSCc1c(C)c(OC)cc[n+]1-c1nc2ccc(C(F)(F)F)cc2[nH]1.[Cl-]` [D, 2-[(Hexyldithio)methyl]-4-methoxy-3-methyl-1-[5-(trifluoromethyl) -2-benzimidazolyl]pyridinium chloride], the ED50 was found to be 1.9 mg/kg in series [1] (setting [4]) and 6.8 mg/kg in series [2] (setting [5]). In series [3], the LD50 is more than 5000 mg/kg.

As to `COc1cc[n+](-c2nc3ccc(C(F)(F)F)cc3[nH]2)c(CSSc2ccccc2Cl)c1C.[Cl-]` [E, 2-[[(o-Chlorophenyl)dithio]methyl]-4-methoxy-3-methyl-1-[5-(trifluoromethyl)-2-benzimidazolyl]pyridinium chloride], the 50% effective dose (ED50) came to 2.1 mg/kg in series [1] (setting [4]) and 6 mg/kg in series [2] (setting [5]). In addition, the LD50 in series [3] was more than 5000 mg/kg.

As to `CCSSCc1c(C)c(OC)cc[n+]1-c1nc2ccc(C(F)(F)F)cc2[nH]1.[Cl-]` [F, 2-[(Ethyldithio)methyl]-4-methoxy-3-methyl-1-[5-(trifluoromethyl)-2-benzimidazolyl]pyridinium chloride], the ED50 came to 1.7 mg/kg in series [1] (setting [4]) and 1.6 mg/kg in series [2] (setting [5]). Moreover, the LD50 in series [3] lay in the range of 1250 to 2500 mg/kg.

Turning to `COc1cc[n+](-c2nc3cc(C(F)(F)F)ccc3[nH]2)c(CSSCCN)c1C` [G, 2-[[(2-Aminoethyl)dithio]methyl]-4-methoxy-3-methyl-b 1-[5-(trifluoromethyl)-2-benzimidazolyl]pyridinium chloride], the values for the ED50 in series [1] (setting [4]) and in series [2] (setting [5]) were 2.3 mg/kg and 1.5 mg/kg, respectively. Further, in series [3], the LD50 lay in the range of 312 to 625 mg/kg.

Regarding `COc1cc[n+](-c2nc3cc4c(cc3[nH]2)C(C)(C)C(=O)C4(C)C)c(CSSc2cccc(Cl)c2)c1C` [H, 2-[[(m-Chlorophenyl)dithio]methyl]-4-methoxy-3-methyl-1-(1,5,6,7-tetrahydro-5,5,7,7-tetramethyl-6-oxoindeno[5,6d]imidazol-2-yl)pyridinium chloride], the ED50 in series [1] (setting [4]) was found to be 1.8 mg/kg; in series [2] (setting [5]) it was 6.2 mg/kg. Moreover, the LD50 in series [3] was in the range of 1250 to 2500 mg/kg.

Turning to `COc1cc[n+](-c2nc3cc4c(cc3[nH]2)C(C)(C)C(=O)C4(C)C)c(CSSC[C@H](N)C(=O)O)c1C.[Cl-]` [I, 2-[[[(R)-2-Amino-2-carboxyethyl]dithio]methyl]-4-methoxy-3-methyl-1-(1,5,6,7-tetrahydro-5,5,7,7-tetramethyl-6-oxoindeno[5,6-d]imidazol-2-yl)pyridinium chloride], the ED50 in series [1] (setting [4]) was found to be 2.3 mg/kg; in series [2] (setting [5]), 3.9 mg/kg. In series [3], the LD50 lay within 312 to 625 mg/kg.

In the case of `CCOC(=O)CC(SSCc1c(C)c(OC)cc[n+]1-c1nc2ccc(C(F)(F)F)cc2[nH]1)C(=O)OCC.[Cl-]` (centres unmarked) [J, 2-[[[1,2-Bis-(ethoxycarbonyl)ethyl]dithio]methyl]-4-methoxy-3-methyl-1-[5-(trifluoromethyl)-2-benzimidazolyl]pyridinium chloride], the ED50 amounted to 2.4 mg/kg in series [1] (setting [4]) and 2.2 mg/kg in series [2] (setting [5]). The LD50 in series [3] lay in the range of 1250 to 2500 mg/kg.

Turning to `CCSSCc1c(C)c(OC)cc[n+]1-c1nc2cc3c(cc2[nH]1)C(C)(C)C(=O)C3(C)C.[Cl-]` [K, 2-[(Ethyldithio)methyl]-4-methoxy-3-methyl-1-(1,5,6,7-tetrahydro-5,5,7,7-tetramethyl-6-oxoindeno[5,6-d]-imidazol-2-yl)pyridinium chloride], the 50% effective dose (ED50) in series [1] (setting [4]) came out at 2.3 mg/kg; in series [2] (setting [5]), 6.5 mg/kg. The LD50 in series [3] was in the range of 312 to 625 mg/kg.

As to `CCCSSCc1c(C)c(OC)cc[n+]1-c1nc2cc3c(cc2[nH]1)C(C)(C)C(=O)C3(C)C.[Cl-]` [L, 4-Methoxy-3-methyl-2-[(propyldithio)methyl]-1-(1,5,6,7-tetrahydro-5,5,7,7-tetramethyl-6-oxoindeno[5,6-d]-imidazol-2-yl)pyridinium chloride], the ED50 in series [1] (setting [4]) was 1.6 mg/kg; in series [2] (setting [5]), 3.4 mg/kg. Besides, the LD50 in series [3] lay in the range of 312 to 625 mg/kg.

As for `CCOC(=O)[C@@H](N)CSSCc1c(C)c(OC)cc[n+]1-c1nc2cc3c(cc2[nH]1)C(C)(C)C(=O)C3(C)C.[Cl-]` [M, 2-[[[(R)-2-Amino-2-(ethoxycarbonyl)ethyl]dithio]methyl]-4-methoxy-3-methyl-1-(1,5,6,7-tetrahydro-5,5,7,7-tetramethyl-6-oxoindeno[5,6-d]imidazol-2-yl)pyridinium chloride], the ED50 was found to be 1.6 mg/kg in series [1] (setting [4]) and 4.6 mg/kg in series [2] (setting [5]). The LD50 in series [3] is 312 to 625 mg/kg.

With `COc1cc[n+](-c2nc3cc4c(cc3[n-]2)C(C)(C)C(=O)C4(C)C)c(CSSCCN(C)C)c1C` [N], the ED50 came to 1.5 mg/kg in series [1] and 3.7 mg/kg in series [2] (po).

Take `COc1cc[n+](-c2nc3cc4c(cc3[nH]2)C(C)(C)C(=O)C4(C)C)c(CSSCCO)c1C.[Cl-]` [O, 2-[[(2-Hydroxyethyl)dithio]methyl]-4-methoxy-3-methyl-1-(1,5,6,7-tetrahydro-5,5,7,7-tetramethyl-6-oxoindeno[5,6-d]imidazol-2-yl)pyridinium chloride]: the ED50 in series [1] (setting [4]) turned out to be 2.3 mg/kg; in series [2] (setting [5]), 2.9 mg/kg. Further, in series [3], the LD50 is 312 to 625 mg/kg.

For the molecule `COc1cc[n+](-c2nc3cc4c(cc3[nH]2)C(C)(C)C(=O)C4(C)C)c(CSSC2CCCC2)c1C.[Cl-]` [Q, 2-[(Cyclopentyldithio)methyl]-4-methoxy-3-methyl-1-(1,5,6,7-tetrahydro-5,5,7,7-tetramethyl-6-oxoindeno[5,6-d]imidazol-2-yl)pyridinium chloride], the figures for the 50% effective dose (ED50) in series [1] (setting [4]) and in series [2] (setting [5]) were 1.6 mg/kg and 4.9 mg/kg, respectively. Also, in series [3], the LD50 is 312 to 625 mg/kg.
